For 2 compounds, ΔTm and remaining activity results are on record in paper PMC9097471, “Development of Selective Phosphatidylinositol 5-Phosphate 4-Kinase γ Inhibitors with a Non-ATP-competitive, Allosteric Binding Mode” (Journal of Medicinal Chemistry, 2022).

For one test, the target named is T1, PI5P4Kα (Homo sapiens, UniProt P48426).
T1 sequence (P48426 1-406): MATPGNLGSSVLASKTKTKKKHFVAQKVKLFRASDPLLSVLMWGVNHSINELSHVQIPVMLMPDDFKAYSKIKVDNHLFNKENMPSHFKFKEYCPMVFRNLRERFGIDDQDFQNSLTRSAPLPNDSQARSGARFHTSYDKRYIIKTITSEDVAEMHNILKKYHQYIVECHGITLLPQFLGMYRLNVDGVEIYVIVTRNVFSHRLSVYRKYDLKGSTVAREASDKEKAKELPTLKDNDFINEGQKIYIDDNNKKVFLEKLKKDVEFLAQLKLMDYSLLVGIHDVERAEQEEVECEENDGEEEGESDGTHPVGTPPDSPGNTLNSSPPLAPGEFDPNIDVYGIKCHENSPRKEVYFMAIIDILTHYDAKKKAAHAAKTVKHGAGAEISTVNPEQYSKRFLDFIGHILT
Put plainly: Thermal shift assay. The note with it: read-out: ΔTm PI5P4Kα, thermal shift, compound 63 μM.

For another test, the target named is ABL (Homo sapiens, UniProt P00519). Put plainly: Kinase panel, radiometric 33P filter binding. In kind it is biochemical. The text has this: (§1) Kinase % activity remaining s.d.
The target in the next test is CDK9-Cyclin T1 (Homo sapiens, UniProt P50750). Kind of test: Kinase panel, radiometric 33P filter binding. In kind it is biochemical. Particulars: CDK9-Cyclin T1, 10 μM.
From the text: as §1

For another test, the target named is SmMLCK (Homo sapiens, UniProt Q15746). Kind of test: Kinase panel, radiometric 33P filter binding. Type of test: biochemical.
From the text: as §1

The target of another test is MKK1 (Homo sapiens, UniProt Q02750). Put plainly: Kinase panel, radiometric 33P filter binding. The note with it: read-out: % activity remaining.
A further test has as its target RSK1 (Homo sapiens, UniProt Q15418). Kind of test: Kinase panel, radiometric 33P filter binding. Particulars: read-out: % activity remaining.
The next test has as its target PKBa (Homo sapiens, UniProt P31749). Kind of test: Kinase panel, radiometric 33P filter binding. Particulars: read-out: % activity remaining.
In another test the target is PKBb (Homo sapiens, UniProt P31751). Put plainly: Kinase panel, radiometric 33P filter binding. The note with it: read-out: % activity remaining.
Another test has as its target PRK2 (Homo sapiens, UniProt Q16513). Put plainly: Kinase panel, radiometric 33P filter binding. Particulars: read-out: % activity remaining.
A further test deals with PKD1 (Homo sapiens, UniProt Q15139). Put plainly: Kinase panel, radiometric 33P filter binding. The note with it: read-out: % activity remaining.
The target of another test is STK33 (Homo sapiens, UniProt Q9BYT3). Put plainly: Kinase panel, radiometric 33P filter binding. Particulars: read-out: % activity remaining.
For the next test, the target named is MAPKAP-K2 (Homo sapiens, UniProt P49137). Kind of test: Kinase panel, radiometric 33P filter binding. The note with it: read-out: % activity remaining.
The target of the next test is GSK3b (Homo sapiens, UniProt P49841). Kind of test: Kinase panel, radiometric 33P filter binding. The note with it: read-out: % activity remaining.
The next test addresses TLK1 (Homo sapiens, UniProt Q9UKI8). Kind of test: Kinase panel, radiometric 33P filter binding. Particulars: read-out: % activity remaining.
The target of the next test is LKB1 (Homo sapiens, UniProt Q15831). Put plainly: Kinase panel, radiometric 33P filter binding. Particulars: read-out: % activity remaining.
The target in the next test is MELK (Homo sapiens, UniProt Q14680). Put plainly: Kinase panel, radiometric 33P filter binding. The note with it: read-out: % activity remaining.
In another test the target is SIK3 (Homo sapiens, UniProt Q9Y2K2). Put plainly: Kinase panel, radiometric 33P filter binding. The note with it: read-out: % activity remaining.
In the next test the target is DYRK1A (Homo sapiens, UniProt Q13627). Put plainly: Kinase panel, radiometric 33P filter binding. Particulars: read-out: % activity remaining.
Another test addresses NEK2a (Homo sapiens, UniProt P51955). Kind of test: Kinase panel, radiometric 33P filter binding. Particulars: read-out: % activity remaining.
For a further test, the target named is NEK6 (Homo sapiens, UniProt Q9HC98). Put plainly: Kinase panel, radiometric 33P filter binding. Particulars: read-out: % activity remaining.
The target of the next test is IKKb (Homo sapiens, UniProt O14920). Put plainly: Kinase panel, radiometric 33P filter binding. Particulars: read-out: % activity remaining.
The target in the next test is EIF2AK3 (Homo sapiens, UniProt Q9NZJ5). Kind of test: Kinase panel, radiometric 33P filter binding. Particulars: read-out: % activity remaining.
Sequence of EIF2AK3 (Q9NZJ5 30-1116): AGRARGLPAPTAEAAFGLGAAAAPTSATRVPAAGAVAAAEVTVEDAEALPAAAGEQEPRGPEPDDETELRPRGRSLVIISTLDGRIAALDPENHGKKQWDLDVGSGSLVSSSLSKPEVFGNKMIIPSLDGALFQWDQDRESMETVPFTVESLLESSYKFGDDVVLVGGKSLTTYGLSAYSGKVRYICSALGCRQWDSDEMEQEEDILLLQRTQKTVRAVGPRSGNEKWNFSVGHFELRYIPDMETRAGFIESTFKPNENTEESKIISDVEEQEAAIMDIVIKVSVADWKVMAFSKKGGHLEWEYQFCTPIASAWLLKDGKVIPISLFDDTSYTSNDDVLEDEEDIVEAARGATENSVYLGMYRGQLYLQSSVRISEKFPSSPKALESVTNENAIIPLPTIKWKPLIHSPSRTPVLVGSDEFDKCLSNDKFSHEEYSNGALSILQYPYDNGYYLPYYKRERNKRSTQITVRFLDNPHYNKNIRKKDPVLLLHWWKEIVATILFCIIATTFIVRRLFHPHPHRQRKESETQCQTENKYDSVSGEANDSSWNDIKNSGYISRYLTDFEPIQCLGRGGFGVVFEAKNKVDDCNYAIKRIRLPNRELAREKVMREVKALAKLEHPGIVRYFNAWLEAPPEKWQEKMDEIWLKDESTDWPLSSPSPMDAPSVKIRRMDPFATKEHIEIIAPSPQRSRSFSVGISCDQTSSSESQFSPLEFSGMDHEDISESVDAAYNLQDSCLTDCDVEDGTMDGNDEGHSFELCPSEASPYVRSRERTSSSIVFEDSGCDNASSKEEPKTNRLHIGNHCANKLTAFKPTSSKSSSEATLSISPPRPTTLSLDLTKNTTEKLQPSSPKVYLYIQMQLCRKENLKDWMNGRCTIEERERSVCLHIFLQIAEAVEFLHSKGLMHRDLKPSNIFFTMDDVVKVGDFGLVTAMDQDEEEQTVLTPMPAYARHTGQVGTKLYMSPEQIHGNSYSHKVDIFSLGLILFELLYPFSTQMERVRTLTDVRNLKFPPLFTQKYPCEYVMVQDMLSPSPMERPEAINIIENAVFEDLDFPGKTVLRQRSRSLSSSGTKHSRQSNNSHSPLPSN
The target in the next test is HIPK1 (Homo sapiens, UniProt Q86Z02). Kind of test: Kinase panel, radiometric 33P filter binding. The note with it: read-out: % activity remaining.
Another test has as its target PAK4 (Homo sapiens, UniProt O96013). Put plainly: Kinase panel, radiometric 33P filter binding. Particulars: read-out: % activity remaining.
For the next test, the target named is GCK (Homo sapiens, UniProt Q12851). Kind of test: Kinase panel, radiometric 33P filter binding. Particulars: read-out: % activity remaining.
In a further test the target is MEKK1 (Homo sapiens, UniProt Q13233). Put plainly: Kinase panel, radiometric 33P filter binding. Particulars: read-out: % activity remaining.
The target of another test is TESK1 (Homo sapiens, UniProt Q15569). Put plainly: Kinase panel, radiometric 33P filter binding. The note with it: read-out: % activity remaining.
The target of a further test is IRAK4 (Homo sapiens, UniProt Q9NWZ3). Put plainly: Kinase panel, radiometric 33P filter binding. Particulars: read-out: % activity remaining.
Sequence of IRAK4 (Q9NWZ3 whole entry): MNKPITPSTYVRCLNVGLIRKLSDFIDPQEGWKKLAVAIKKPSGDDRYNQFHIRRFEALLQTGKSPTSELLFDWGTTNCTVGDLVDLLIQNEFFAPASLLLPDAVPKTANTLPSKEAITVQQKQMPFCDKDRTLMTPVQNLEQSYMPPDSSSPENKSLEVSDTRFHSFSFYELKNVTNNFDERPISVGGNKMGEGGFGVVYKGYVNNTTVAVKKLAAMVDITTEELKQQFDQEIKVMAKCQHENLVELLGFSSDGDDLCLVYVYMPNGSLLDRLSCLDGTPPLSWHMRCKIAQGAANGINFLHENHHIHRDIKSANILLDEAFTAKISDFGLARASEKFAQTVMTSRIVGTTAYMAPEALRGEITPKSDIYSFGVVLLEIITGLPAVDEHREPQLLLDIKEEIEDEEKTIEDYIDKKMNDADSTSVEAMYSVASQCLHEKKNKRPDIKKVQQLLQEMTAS
In the next test the target is Lck (Homo sapiens, UniProt P06239). Put plainly: Kinase panel, radiometric 33P filter binding. The note with it: read-out: % activity remaining.
Sequence of Lck (P06239 whole entry): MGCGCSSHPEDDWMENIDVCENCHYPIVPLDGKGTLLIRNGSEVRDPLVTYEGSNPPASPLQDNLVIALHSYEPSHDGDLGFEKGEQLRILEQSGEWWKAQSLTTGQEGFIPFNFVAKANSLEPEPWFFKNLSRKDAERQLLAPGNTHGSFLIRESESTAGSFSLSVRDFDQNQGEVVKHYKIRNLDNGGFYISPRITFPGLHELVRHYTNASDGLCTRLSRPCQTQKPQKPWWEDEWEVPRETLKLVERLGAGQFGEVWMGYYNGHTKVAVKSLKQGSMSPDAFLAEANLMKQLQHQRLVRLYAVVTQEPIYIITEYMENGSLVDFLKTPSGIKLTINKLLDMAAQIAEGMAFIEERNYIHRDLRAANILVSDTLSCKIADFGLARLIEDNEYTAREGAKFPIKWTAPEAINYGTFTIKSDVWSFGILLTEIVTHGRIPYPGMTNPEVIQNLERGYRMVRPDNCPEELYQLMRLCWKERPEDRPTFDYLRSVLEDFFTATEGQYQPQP
Another test addresses YES1 (Homo sapiens, UniProt P07947). Kind of test: Kinase panel, radiometric 33P filter binding. The note with it: read-out: % activity remaining.
The target of a further test is EPH-B2 (Homo sapiens, UniProt P29323). Kind of test: Kinase panel, radiometric 33P filter binding. The note with it: read-out: % activity remaining.
Sequence of EPH-B2 (P29323 19-1055): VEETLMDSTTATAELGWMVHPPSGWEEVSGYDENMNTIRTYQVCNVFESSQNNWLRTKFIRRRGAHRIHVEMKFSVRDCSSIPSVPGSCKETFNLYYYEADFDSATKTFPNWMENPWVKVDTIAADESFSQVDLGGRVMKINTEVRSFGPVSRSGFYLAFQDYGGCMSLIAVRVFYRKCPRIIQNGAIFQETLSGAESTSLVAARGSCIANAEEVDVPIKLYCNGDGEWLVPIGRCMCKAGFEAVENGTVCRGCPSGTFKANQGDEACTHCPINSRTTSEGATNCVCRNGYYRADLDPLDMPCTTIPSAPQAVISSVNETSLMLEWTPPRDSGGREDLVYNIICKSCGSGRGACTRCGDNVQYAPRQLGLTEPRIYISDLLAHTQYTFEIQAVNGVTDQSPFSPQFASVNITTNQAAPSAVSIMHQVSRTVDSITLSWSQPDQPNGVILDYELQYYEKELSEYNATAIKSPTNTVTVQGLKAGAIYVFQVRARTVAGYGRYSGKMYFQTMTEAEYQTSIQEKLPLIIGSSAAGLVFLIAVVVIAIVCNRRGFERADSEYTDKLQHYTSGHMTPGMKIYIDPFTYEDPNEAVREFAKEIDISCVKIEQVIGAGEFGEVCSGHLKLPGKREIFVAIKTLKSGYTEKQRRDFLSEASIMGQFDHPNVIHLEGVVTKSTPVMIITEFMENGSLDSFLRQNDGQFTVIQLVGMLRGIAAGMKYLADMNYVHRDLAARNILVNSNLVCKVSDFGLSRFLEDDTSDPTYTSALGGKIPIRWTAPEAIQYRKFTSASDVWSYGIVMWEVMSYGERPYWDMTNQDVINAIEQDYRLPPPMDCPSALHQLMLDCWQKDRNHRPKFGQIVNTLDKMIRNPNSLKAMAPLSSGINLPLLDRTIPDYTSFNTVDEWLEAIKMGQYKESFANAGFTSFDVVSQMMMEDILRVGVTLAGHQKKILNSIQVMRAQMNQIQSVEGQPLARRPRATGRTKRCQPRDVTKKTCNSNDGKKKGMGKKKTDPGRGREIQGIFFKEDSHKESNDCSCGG
Another test deals with EPH-B3 (Homo sapiens, UniProt P54753). Kind of test: Kinase panel, radiometric 33P filter binding. Particulars: read-out: % activity remaining.
A further test concerns the target IGF-1R (Homo sapiens, UniProt P08069). Kind of test: Kinase panel, radiometric 33P filter binding. Particulars: read-out: % activity remaining.

Sequence of TLK1 (Q9UKI8 whole entry): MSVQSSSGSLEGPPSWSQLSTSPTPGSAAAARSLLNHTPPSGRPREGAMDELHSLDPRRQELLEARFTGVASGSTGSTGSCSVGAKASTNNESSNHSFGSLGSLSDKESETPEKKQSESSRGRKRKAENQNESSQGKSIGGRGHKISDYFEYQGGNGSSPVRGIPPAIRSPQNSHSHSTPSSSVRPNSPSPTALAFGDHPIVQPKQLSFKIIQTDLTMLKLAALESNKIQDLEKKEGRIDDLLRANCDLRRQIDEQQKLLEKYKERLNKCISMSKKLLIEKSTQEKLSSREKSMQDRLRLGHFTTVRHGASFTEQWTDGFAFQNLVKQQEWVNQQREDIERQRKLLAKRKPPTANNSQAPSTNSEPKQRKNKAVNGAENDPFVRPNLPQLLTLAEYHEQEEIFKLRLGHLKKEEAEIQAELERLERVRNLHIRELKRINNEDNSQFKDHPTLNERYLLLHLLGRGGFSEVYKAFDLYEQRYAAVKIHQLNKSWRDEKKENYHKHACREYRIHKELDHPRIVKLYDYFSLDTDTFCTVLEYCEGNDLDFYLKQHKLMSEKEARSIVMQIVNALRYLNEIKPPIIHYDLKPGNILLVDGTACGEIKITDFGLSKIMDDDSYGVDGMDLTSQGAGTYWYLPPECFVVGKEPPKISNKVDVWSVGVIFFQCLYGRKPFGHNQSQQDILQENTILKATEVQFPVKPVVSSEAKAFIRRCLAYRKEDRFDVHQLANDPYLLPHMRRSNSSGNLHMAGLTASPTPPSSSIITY
Sequence of PRK2 (Q16513 whole entry): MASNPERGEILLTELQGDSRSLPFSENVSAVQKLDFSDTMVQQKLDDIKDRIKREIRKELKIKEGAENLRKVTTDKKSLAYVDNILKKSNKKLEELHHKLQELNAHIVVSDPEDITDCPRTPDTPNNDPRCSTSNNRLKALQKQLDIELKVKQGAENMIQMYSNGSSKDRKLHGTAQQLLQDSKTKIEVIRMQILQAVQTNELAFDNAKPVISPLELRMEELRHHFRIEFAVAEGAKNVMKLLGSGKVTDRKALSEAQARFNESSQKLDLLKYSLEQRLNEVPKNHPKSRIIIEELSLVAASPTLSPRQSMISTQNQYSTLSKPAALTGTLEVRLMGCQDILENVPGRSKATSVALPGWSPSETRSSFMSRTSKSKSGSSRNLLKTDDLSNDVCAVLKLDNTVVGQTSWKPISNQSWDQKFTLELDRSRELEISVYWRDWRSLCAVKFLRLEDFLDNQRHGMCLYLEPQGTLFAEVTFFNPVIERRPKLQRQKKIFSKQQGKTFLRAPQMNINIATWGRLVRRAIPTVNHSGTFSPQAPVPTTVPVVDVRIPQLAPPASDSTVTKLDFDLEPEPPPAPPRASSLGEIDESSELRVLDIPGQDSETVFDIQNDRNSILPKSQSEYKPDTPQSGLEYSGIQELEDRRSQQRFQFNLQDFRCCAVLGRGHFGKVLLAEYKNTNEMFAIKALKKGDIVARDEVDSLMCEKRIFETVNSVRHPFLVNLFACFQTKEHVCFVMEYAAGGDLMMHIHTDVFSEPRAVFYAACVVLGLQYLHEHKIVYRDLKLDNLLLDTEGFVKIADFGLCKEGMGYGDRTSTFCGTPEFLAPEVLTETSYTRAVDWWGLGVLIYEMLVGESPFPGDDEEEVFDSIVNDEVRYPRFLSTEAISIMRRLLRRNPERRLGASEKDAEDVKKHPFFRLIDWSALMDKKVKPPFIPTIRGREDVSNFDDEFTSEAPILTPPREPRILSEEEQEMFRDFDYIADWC
From the text for DYRK1A: (§2) filter binding assay using 33P-g-ATPat the MRC PPU International Centre for Kinase Profiling, University of
From the text for EIF2AK3: as §2
From the text for EPH-B2: as §2
From the text for EPH-B3: as §2
From the text for GCK: as §2
From the text for GSK3b: as §2
From the text for HIPK1: as §2
From the text for IGF-1R: as §2
From the text for IKKb: as §2
From the text for LKB1: as §2
From the text for MEKK1: as §2
From the text for MELK: as §2
From the text for NEK2a: as §2
From the text for NEK6: as §2
From the text for PAK4: as §2
From the text for PKBa: as §2
From the text for PKBb: as §2
From the text for PKD1: as §2
From the text for PRK2: as §2
From the text for RSK1: as §2
From the text for SIK3: as §2
From the text for STK33: as §2
From the text for TESK1: as §2
From the text for TLK1: as §2

Take `FC(F)(F)c1ccccc1-c1nc(NCc2cccs2)c2ccccc2n1` [Compound 1, NIH-12848, reference compound]: the ΔTm at 63 µM at PI5P4Kα is -0.2 ± 0.4 °C.

Usually remaining activity stands for the signal under treatment as a percentage of the control signal. On to `CC(C)c1ccccc1-c1nc(NCc2ccccn2)c2c(ccn2C)n1` [Compound 40], for which the remaining activity at 10 µM on ABL amounted to 108%; on CDK9-Cyclin T1 it was 108%; at SmMLCK, 108%; on MKK1, 92%; on RSK1, 99%; at PKBa, 103%. The remaining activity at 10 µM at PKBb is 75%; on PRK2, 83%; on PKD1, 109%; at STK33 it was 99%; on MAPKAP-K2 it was 123%; on GSK3b it was 93%. Also, the remaining activity at 10 µM on TLK1 turned out to be 115%; at LKB1 it was 94%; on MELK, 95%; at SIK3 it was 111%; on DYRK1A it was 101%; at NEK2a, 103%. In addition, the remaining activity at 10 µM at NEK6 is 120%; at IKKb, 100%; on EIF2AK3 it was 103%; at HIPK1, 104%; at PAK4 it was 95%; at GCK, 93%. In addition, the remaining activity at 10 µM on MEKK1 worked out at 68%; on TESK1 it was 114%; at IRAK4, 114%; at Lck, 102%; on YES1, 115%; on EPH-B2 it was 78%. Also, the remaining activity at 10 µM amounted to 105% on EPH-B3 and 107% on IGF-1R.
